Reference: article PMC10112881 (Cell reports, 2023)
Structures can show the parent of a compound that is named as a salt.

Legend:
[1] = system: D1/5 subtypes; assay: G protein dissociation BRET assay; format: cell-based, human
[2] = target: 5-HT4 (Homo sapiens, UniProt Q13639); assay: G protein dissociation BRET assay; format: cell-based
[3] = system: 33 human aminergic GPCRs; assay: Pan-aminergic GPCR functional screen; format: cell-based; conditions: of 33 aminergic GPCR targets tested
[4] = system: rest of the histamine and muscarinic GPCRs; assay: G protein dissociation BRET assay; format: cell-based, human
[5] = target: D3 (Homo sapiens, UniProt P35462); assay: G protein dissociation BRET assay; format: cell-based; conditions: relative to dopamine
Chain of D3 (P35462 whole entry): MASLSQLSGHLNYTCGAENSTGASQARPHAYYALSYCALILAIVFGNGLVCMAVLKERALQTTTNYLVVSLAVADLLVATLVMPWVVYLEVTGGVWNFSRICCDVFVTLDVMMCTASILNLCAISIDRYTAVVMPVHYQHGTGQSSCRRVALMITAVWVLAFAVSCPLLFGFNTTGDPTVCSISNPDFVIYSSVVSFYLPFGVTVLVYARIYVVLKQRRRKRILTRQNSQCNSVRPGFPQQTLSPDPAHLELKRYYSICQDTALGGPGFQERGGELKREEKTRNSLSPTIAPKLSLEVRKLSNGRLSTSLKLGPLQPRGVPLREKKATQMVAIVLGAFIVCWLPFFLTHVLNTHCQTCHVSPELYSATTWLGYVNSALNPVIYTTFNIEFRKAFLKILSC

[6] = system: head-twitch response; assay: Head-twitch response
[7] = system: rat cortical neurons; assay: Dendritogenesis; format: cell-based
[8] = Open field test; format: in vivo, C57BL/6J mice; conditions: 0.125 mg/kg alone or with 2-Br-LSD 1 mg/kg
[9] = Forced swim test; format: in vivo, C57BL/6J mice; conditions: 0.125 mg/kg before 2-Br-LSD 1 mg/kg, females and males
[10] = system: HTR induced by DOI; assay: Tolerance to DOI-induced HTR after repeated treatment; conditions: 10 mg/kg/day IP 7 days, DOI 1 mg/kg challenge 24 h later
[11] = system: head-twitch response; conditions: cited from earlier work
[12] = system: HTR induced by DOI; assay: Blockade of DOI-induced head-twitch response; conditions: 0.025 or 0.25 mg/kg, DOI 1 mg/kg
[13] = system: rat cortical neurons; assay: Spinogenesis in cultured cortical neurons; format: cell-based; conditions: 10 μM, 3 h at DIV18, read 24 h after onset

Chain of 5-HT4 (Q13639 whole entry): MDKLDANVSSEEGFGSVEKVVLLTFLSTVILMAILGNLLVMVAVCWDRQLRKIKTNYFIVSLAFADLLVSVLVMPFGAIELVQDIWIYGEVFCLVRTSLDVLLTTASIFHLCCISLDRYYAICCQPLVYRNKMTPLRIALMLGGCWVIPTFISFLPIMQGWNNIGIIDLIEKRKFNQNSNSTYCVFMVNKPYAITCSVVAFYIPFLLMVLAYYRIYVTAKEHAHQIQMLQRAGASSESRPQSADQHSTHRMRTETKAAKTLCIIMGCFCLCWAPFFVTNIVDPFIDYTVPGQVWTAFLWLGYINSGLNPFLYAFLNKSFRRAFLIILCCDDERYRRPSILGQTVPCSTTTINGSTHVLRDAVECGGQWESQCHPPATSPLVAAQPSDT

For `CCN(CC)C(=O)[C@@H]1C=C2c3cccc4[nH]cc(c34)C[C@H]2N(C)C1.CCN(CC)C(=O)[C@@H]1C=C2c3cccc4[nH]cc(c34)C[C@H]2N(C)C1.O=C(O)C(O)C(O)C(=O)O` [LSD, (+)-lysergic acid diethylamide (2:1) (+)-tartrate, reference compound], which “agonism at D1/5 subtypes” value [1] is on record?
The value was “demonstrates agonist activity”.

And the “activity at 5-HT4” value [2]?
Its value is “lack potent agonist or antagonist activity”.

What about the “number of aminergic GPCR targets with agonist activity” value [3] of the same compound?
The value was 20.

And the “agonism or antagonism at the rest of the histamine and muscarinic GPCRs” value [4]?
The value was “neither 2-Br-LSD nor LSD possessed weak agonism or antagonism”.

And the EMAX [5]?
The EMAX was 75%.

And the “induction of the HTR” value ([6]; 0.1 mg/kg IP, male C57BL/6J mice, 60 min)?
Its value is “significant increase in HTR counts”.

With `COc1cccc([C@H](O)C2CCN(CCc3ccc(F)cc3)CC2)c1OC` [Vol, volinanserin, reference compound] as the compound, how does the “dendritic arbor complexity, administered alone” value ([7]; 0.1–1 μM) read?
Its value is “did not change any parameter linked to dendritic arbor complexity”.

And the “effect of pre-treatment on 2-Br-LSD-induced total dendrite length” value ([7]; before 2-Br-LSD 1 μM)?
Its value is “blocked the increase in total dendrite length”.

And the “locomotion in the OF” value [8]?
The value was “Neither Vol nor a combination of Vol and 2-Br-LSD affected locomotion”.

And the “effect of pre-treatment on 2-Br-LSD decrease in immobility” value [9]?
The value was “blocked the decrease in immobility”.

For `COc1cc(CC(C)N)c(OC)cc1I.Cl` (racemic) [DOI, (±)-2,5-Dimethoxy-4-iodoamphetamine hydrochloride, reference compound], which “tolerance on HTR after repeated treatment” value [10] is on record?
The value was “significant degree of tachyphylaxis”.

Which “effect on the HTR induced by LSD” value [11] does the source give for `CCCN1CCC[C@@H]2Cc3n[nH]cc3C[C@H]21` [(–)-quinpirole, (–)-quinpirole hydrochloride, reference compound] here?
Its value is “does not alter the HTR”.

What about the “reduction of the response to DOI” value [12] of the same compound?
Its value is ~ 20%.

Which “effect of pre-treatment on the response to 2-Br-LSD in the HTR assay” value ([6]; 1 mg/kg WAY-100,635, then 2-Br-LSD 3 mg/kg) does the source give for `COc1ccccc1N1CCN(CCN(C(=O)C2CCCCC2)c2ccccn2)CC1.O=C(O)/C=C\C(=O)O` [WAY-100,635, N-[2-[4-(2-Methoxyphenyl)-1-piperazinyl]ethyl]-N-(2-pyridinyl)cyclohexanecarboxamide maleate, reference compound] here?
The value was “had no effect”.

With `CNC1(c2ccccc2Cl)CCCCC1=O` (stereo not drawn) [ketamine, Ketamine hydrochloride, reference compound] as the compound, how does the spine density [13] read?
Its spine density is “spine density increased”.
